Measured values: US20030134901A1, “Lipoxin compounds and their use in treating cell proliferative disorders” (priority 1993, published 2003)

Columns and labels:
[1] = biological target: T1, LTB4 specific binding sites of HL-60 cells (Homo sapiens, UniProt Q15722); assay: 3H-LTB4 specific binding to HL-60 cells; settings: competitor 300 nM, differentiated HL-60 cells
T1 construct: endogenous in cells; host or cells: differentiated HL-60 cells, intact

A549 cells = assay: A549 cell proliferation, MTT assay; type: cell-based, human
In short: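 A549 cells, ~2000/well, given compounds at 5-1000 nM or 0.15% ethanol vehicle after 24 h, quadruplicates, up to 96 h at 37° C. MTT added 4 h, dye extracted in acidified isopropanol and read at 570 nm; MTT signal linear with cell number.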

15-PGDH = biological target: T2, 15-PGDH (Homo sapiens, UniProt P15428); assay: 15-HETE to 15-oxo-ETE dehydrogenase activity of 100,000 g supernatants of PMA-treated HL-60 cells; type: biochemical
T2 construct: 100,000 g supernatants prepared from PMA-treated HL-60 cells converted 15-HETE to 15-oxo-ETE; endogenous in cells; host or cells: HL-60 cells treated with PMA (16 nM, 24-72 h); freeze-thaw lysate, 100,000 g supernatant
T2 sequence (P15428 1-266): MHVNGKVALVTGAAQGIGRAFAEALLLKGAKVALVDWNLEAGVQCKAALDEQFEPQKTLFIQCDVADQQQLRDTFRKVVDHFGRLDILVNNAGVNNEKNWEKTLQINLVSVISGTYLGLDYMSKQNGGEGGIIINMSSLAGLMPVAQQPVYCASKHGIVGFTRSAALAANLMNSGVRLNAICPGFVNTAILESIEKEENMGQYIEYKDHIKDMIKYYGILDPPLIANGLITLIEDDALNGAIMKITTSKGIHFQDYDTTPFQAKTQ
Experimental: Human PMN were obtained from healthy volunteers by gradient centrifugation of heparinized fresh venous blood (Böyum, A. ([…]) Scand. J. Clin. Lab. Invest. 21:77). HL-60 cells were seeded in RPMI supplemented with penicillin (100 U/ml), streptomycin (100 μ/ml), fetal bovine serum (10%) (Hyclone, Logan, Utah) and incubated (37° C. with 5% CO2 atmosphere) in plastic 250 ml flasks. Individual flasks containing […] HL-60 cells/ml were incubated in the presence or absence of phorbol 12-myristate 13-acetate (PMA) (10 or 16 nM, 24-27 h) and adherence was monitored for induction of macrophage-like phenotype as in Collins, S. J. (1987) Blood 70:1233. […]
Incubations with eicosanoids were stopped with cold methanol containing either PGB2 or 5-HETE as internal standards (5-HETE was used when 15-oxo-ETE was quantified). […] Formation of 15-oxo-ETE by 100,000 g supernatants (cf. Agins, A. P. et al. (1987) Agents Actions 21:397; Xun, C-Q. et al.(1991) Biochem. J. 279:553; and Sok, D-E. et al. (1988) Biochem. Biophys. Res. Commun. 156:524) was quantified after RP-HPLC using an ODS column (4.6 mm×25 cm) eluted with methanol/H2O/acetic acid (70:30:0.01, v/v/v) monitored at 280 nm with a flow rate of 1 ml/min. […] On-line spectra were recorded using a diode array detector (Hewlett-Packard 1040M series II) equipped with HPLC^3D ChemStation software (DOS series). […]

T1 sequence (Q15722 whole entry): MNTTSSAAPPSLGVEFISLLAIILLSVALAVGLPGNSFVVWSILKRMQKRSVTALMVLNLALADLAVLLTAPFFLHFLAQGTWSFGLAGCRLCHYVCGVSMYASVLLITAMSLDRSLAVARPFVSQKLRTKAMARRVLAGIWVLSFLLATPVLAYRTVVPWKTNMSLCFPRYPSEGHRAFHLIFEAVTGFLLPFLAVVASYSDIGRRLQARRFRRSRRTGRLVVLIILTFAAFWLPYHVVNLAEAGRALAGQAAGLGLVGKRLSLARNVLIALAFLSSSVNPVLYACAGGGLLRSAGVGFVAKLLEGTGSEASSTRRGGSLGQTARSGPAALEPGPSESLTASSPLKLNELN

With CCCCC[C@H](O)/C=C/C=C\C=C\C=C\[C@@H](O)[C@@H](O)CCCC(=O)O [LXA4, (5S, 6R, 15S)-trihydroxy-7E, 9E, 11Z, 13E-eicosatetraenoic acid] the “competition with 3H-LTB4 (0.3 nM) binding” value [1] was “unable to compete”, the “inhibition of A549 cell proliferation over time” value (A549 cells; 1 μM, after 72 and 96 hours of treatment) was “inhibited A549 cell proliferation” and the inhibition at 0.1 µM (A549 cells; Homo sapiens, A549, 10^−7 M, 72 hours at 37° C., mean ± SEM, 3 to 7 experiments) was 16.3 ± 5.2%. For the same compound, the IC50 (A549 cells; Homo sapiens, A549, MTT assay, 72 hours, read-out: half maximum inhibition (IC50) of A549 cell proliferation) was roughly 0.08 µM, the Ki (15-PGDH; Lineweaver-Burke plots, S.E.M., n=6, read-out: Ki, competition for catalysis of 15-HETE) was 8.2 ± 2.6 µM and the “block of 15-oxo-ETE formation” value (15-PGDH; equimolar concentrations of LXA4 and 15-HETE) was “≈ 50%”.
